{
  "source": "patent US9125824B1",
  "about": "(InnoVitamin Organics, LLC, priority 2010, dated 2015)",
  "assay": "storage stability of trans-resveratrol under controlled temperature and humidity",
  "assay_type": "physicochemical",
  "settings": "stored at 10.0° C. (50 degrees F.) to approximately 30° C. (86 degrees F.), humidity less than 35 percent",
  "method": "(50 degrees F.) to approximately 30° C.\nTwenty five (25) kilograms of fine powder consisting of pomace, vines and leaves is stored in a cool, dark, dry location for shipping to the dietary supplement manufacturing facility. The temperature range of the storage area is in a range of between approximately 10.0° C. (50 degrees F.) to approximately 30° C. (86 degrees F.) and the dry location has a humidity level of less than 35 percent water vapor in the air.",
  "data": [
    {"smiles": "Oc1ccc(/C=C/c2cc(O)cc(O)c2)cc1", "note": "[trans-resveratrol]", "values": [
      {"measurement": "stability during storage and processing", "result": "remain stable"},
      {"measurement": "stability during storage and processing", "setting": "listed as organic trans-resveratrol", "result": "remains a stable compound"}
    ]}
  ]
}
